Results: patent US20090137572A1, “2-substituted-4-heteroaryl-pyrimidines useful for the treatment of proliferative disorders” (priority 2004, published 2009)

How the values were obtained:
CDK1-cyclin B = CDK1-cyclin B (Homo sapiens, UniProt P06493); experiment: Kinase assay (radioactive phosphate incorporation), CDK1-cyclin B; format: biochemical; conditions: read-out: Kinase Inhibition pIC50 CDK1-cyclin B (converted)
In short: (§1)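 Radiometric filter-binding format: recombinant kinase + substrate, pH 7.4 MOPS buffer with EGTA, DTT, vanadate; 100 μM ATP/[γ-32P]-ATP, 15 mM MgCl2; 30° C; stopped on ice, P81 or GF/C filtration, scintillation read.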

CDK2-cyclin A = CDK2-cyclin A (Homo sapiens, UniProt P24941); experiment: Kinase assay (radioactive phosphate incorporation), CDK2-cyclin A; format: biochemical; conditions: read-out: Kinase Inhibition pIC50 CDK2-cyclin A (converted)
In short: as §1

CDK2-cycline E = CDK2-cycline E (Homo sapiens, UniProt P24941); experiment: Kinase assay (radioactive phosphate incorporation), CDK2-cyclin E; format: biochemical; conditions: read-out: Kinase Inhibition pIC50 CDK2-cycline E (converted)
In short: as §1

CDK4-cyclin D1 = CDK4-cyclin D1 (Homo sapiens, UniProt P11802); experiment: Kinase assay (radioactive phosphate incorporation), CDK4-cyclin D1; format: biochemical; conditions: read-out: Kinase Inhibition pIC50 CDK4-cyclin D1 (converted)
In short: as §1

CDK7/cyclin H = CDK7/cyclin H (Homo sapiens, UniProt P50613); experiment: CDK 7 assay (CTD peptide substrate); format: biochemical; conditions: read-out: Kinase Inhibition pIC50 CDK7-cyclin H (converted)
In short: (§2)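 Test compounds were incubated with recombinant human kinase/cyclin complex and CTD peptide substrate for 45 min at 30° C (pH 7.2, 100 μM ATP spiked with 32PγATP, 15 mM MgCl2). Reactions were stopped on ice, avidin was added, and phosphorylated peptide was captured on P81 filters and counted by scintillation.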

CDK9/cyclin T1 = CDK9/cyclin T1 (Homo sapiens, UniProt P50750); experiment: CDK 9 assay (CTD peptide substrate); format: biochemical; conditions: read-out: Kinase Inhibition pIC50 CDK9-cyclin T1 (converted)
In short: as §2

GSK3b = GSK3b (Homo sapiens, UniProt P49841); experiment: Kinase assay (radioactive phosphate incorporation), GSK-3b; format: biochemical; conditions: read-out: Kinase Inhibition pIC50 GSK-3b (converted)
In short: as §1

[1] = target: T1, Flt3 (FMS-like tyrosine kinase-3) (Homo sapiens, UniProt P36888); experiment: Kinase assay (radioactive phosphate incorporation), Flt3; format: biochemical; conditions: pIC50 is -log(IC50, M), read-out: Kinase Inhibition pIC50 Flt3 (converted)
T1 sequence (P36888 27-993): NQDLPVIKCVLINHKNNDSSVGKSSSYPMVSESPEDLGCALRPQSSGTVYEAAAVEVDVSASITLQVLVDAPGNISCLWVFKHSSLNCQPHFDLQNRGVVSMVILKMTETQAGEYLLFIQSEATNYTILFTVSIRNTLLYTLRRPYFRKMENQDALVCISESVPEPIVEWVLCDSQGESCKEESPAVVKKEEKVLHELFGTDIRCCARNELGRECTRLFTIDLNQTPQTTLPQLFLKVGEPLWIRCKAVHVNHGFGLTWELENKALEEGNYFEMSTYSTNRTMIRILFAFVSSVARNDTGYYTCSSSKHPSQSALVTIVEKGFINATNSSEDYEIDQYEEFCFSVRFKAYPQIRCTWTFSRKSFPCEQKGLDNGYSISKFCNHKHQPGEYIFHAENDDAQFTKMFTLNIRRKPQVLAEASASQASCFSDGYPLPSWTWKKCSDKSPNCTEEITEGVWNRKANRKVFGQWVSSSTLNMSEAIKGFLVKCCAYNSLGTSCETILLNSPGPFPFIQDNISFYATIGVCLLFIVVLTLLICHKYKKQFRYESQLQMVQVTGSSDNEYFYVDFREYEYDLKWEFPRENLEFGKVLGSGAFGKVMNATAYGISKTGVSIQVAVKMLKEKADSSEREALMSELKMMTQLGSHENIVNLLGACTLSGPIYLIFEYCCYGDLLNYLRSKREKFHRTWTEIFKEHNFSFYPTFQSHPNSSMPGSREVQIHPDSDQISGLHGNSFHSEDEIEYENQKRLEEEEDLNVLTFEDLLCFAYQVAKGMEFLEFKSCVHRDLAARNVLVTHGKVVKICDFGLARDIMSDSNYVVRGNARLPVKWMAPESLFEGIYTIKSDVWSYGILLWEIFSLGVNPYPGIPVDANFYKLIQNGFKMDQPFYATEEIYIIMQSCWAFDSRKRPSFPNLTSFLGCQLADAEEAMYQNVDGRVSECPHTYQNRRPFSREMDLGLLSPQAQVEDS
In short: as §1

Aurora A kinase = target: T2, Aurora A kinase (Homo sapiens, UniProt O14965); experiment: Aurora-A (human) kinase assay (Kemptide substrate); format: biochemical; conditions: pIC50 is -log(IC50, M); 15 μM ATP; read-out: Kinase Inhibition pIC50 Aurora A kinase (converted)
T2 construct: purchased
T2 sequence (O14965 1-403): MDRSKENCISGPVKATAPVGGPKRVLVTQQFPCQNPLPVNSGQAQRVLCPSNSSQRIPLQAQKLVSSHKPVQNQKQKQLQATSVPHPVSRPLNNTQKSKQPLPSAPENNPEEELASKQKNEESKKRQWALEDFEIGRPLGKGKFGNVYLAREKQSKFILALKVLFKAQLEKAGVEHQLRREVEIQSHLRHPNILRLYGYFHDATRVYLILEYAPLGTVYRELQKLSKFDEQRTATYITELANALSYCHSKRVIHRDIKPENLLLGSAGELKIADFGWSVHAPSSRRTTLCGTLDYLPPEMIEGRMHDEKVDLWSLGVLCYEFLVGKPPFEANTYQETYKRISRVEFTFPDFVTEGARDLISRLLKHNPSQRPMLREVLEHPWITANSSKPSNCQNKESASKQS
In short: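 Radiometric filter-binding assay: commercial aurora-A kinase (5-10 ng) with 200 μM Kemptide in MOPS/EDTA pH 7.0, started with 10 mM Mg acetate and 15 μM ATP plus [γ-33P]-ATP. Incubated 40 min at room temperature, stopped with phosphoric acid, incorporated 33P counted by scintillation.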

Chain of CDK4-cyclin D1 (P11802 whole entry): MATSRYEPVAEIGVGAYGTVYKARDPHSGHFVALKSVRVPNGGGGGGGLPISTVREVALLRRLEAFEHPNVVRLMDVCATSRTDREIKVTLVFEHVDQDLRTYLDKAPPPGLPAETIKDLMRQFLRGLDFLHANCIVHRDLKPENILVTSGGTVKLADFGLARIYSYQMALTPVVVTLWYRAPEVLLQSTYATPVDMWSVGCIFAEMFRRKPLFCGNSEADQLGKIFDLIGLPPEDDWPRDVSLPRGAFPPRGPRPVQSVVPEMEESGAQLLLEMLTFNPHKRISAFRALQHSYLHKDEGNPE
Chain of CDK4-cyclin D1 (P24385 whole entry partner): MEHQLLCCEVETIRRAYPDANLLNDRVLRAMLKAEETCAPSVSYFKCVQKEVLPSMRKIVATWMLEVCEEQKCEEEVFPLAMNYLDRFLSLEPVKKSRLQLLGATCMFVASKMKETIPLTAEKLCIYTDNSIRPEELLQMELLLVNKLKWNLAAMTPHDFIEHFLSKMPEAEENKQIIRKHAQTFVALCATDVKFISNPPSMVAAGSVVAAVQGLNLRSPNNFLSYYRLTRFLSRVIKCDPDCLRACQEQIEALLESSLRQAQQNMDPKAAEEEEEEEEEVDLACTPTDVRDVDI
Chain of CDK1-cyclin B (P06493 whole entry): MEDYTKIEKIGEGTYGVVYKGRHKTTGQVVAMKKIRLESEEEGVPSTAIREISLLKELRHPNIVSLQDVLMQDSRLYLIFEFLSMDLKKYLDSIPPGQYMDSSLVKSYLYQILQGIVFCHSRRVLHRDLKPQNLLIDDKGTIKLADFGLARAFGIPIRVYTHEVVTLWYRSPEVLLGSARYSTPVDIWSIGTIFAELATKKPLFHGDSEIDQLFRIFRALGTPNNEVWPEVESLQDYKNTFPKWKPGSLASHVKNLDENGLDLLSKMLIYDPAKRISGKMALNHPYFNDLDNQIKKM
Chain of CDK1-cyclin B (P14635 whole entry partner): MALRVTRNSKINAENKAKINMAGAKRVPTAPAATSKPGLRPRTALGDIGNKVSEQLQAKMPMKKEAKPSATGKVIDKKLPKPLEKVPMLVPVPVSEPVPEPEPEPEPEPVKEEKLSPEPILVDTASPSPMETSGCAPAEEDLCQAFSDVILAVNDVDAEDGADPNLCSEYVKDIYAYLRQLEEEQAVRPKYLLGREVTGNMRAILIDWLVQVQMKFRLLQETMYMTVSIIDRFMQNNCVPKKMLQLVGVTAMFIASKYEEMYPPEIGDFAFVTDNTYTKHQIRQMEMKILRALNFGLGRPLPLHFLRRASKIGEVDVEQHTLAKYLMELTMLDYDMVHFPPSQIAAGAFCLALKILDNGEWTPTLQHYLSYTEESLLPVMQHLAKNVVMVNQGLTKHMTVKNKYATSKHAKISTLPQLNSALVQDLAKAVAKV
Chain of CDK9/cyclin T1 (P50750 whole entry): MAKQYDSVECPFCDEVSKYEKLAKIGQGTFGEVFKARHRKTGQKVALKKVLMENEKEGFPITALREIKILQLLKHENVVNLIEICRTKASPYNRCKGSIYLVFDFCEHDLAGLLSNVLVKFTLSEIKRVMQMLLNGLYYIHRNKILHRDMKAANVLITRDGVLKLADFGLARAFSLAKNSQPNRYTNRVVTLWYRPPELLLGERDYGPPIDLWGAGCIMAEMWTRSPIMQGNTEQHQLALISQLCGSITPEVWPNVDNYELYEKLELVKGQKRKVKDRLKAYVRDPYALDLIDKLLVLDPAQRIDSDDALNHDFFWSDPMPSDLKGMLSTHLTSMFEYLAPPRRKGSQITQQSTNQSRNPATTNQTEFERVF
Chain of CDK9/cyclin T1 (O60563 whole entry partner): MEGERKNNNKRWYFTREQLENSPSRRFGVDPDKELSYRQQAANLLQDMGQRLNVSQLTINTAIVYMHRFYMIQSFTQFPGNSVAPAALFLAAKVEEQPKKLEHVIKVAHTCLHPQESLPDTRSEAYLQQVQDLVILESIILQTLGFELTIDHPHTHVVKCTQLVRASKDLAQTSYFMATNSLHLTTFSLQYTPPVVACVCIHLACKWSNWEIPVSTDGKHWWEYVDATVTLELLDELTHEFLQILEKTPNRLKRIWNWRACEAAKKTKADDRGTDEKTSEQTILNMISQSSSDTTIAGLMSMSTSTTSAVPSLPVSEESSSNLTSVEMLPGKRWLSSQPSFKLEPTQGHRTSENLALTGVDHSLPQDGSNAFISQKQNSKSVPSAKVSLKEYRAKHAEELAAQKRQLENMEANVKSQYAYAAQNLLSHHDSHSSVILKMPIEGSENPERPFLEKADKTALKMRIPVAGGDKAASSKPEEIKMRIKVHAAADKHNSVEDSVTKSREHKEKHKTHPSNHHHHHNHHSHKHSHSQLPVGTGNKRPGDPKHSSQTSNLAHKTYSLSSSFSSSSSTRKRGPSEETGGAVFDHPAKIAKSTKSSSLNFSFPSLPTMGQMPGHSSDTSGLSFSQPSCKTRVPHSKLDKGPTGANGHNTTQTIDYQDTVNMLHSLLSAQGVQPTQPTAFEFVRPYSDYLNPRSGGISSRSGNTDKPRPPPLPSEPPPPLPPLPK
Chain of CDK7/cyclin H (P50613 whole entry): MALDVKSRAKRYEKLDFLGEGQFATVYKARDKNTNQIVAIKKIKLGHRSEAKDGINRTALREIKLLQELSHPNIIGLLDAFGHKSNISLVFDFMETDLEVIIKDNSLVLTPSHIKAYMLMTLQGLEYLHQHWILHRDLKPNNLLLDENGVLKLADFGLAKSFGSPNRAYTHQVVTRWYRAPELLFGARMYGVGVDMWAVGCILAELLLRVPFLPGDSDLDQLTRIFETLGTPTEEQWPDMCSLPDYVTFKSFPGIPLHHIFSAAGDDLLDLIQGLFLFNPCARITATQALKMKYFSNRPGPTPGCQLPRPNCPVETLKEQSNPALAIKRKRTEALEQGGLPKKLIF
Chain of CDK7/cyclin H (P51946 whole entry partner): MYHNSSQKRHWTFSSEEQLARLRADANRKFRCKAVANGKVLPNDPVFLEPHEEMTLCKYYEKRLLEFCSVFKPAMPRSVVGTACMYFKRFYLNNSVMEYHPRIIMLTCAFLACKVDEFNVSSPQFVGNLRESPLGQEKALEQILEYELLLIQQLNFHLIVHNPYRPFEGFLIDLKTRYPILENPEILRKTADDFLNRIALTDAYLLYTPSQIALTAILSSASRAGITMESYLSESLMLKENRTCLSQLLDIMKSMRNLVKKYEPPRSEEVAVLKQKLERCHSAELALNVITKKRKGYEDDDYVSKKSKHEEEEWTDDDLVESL
Chain of GSK3b (P49841 whole entry, species assumed): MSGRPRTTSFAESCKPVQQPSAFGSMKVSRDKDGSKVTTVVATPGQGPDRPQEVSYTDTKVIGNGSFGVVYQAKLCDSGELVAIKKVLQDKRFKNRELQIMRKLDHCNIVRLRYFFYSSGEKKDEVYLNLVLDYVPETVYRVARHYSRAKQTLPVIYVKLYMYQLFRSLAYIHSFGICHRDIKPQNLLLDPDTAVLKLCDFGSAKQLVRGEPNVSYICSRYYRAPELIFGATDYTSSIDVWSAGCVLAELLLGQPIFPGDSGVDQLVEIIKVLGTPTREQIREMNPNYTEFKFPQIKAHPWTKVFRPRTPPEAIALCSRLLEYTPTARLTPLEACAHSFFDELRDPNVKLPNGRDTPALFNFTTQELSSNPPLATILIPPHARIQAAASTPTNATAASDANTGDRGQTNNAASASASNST

IC50 (CDK1-cyclin B) [nM] | IC50 (CDK2-cyclin A) [nM] | IC50 (CDK2-cycline E) [nM] | IC50 (CDK4-cyclin D1) [nM] | IC50 (CDK7/cyclin H) [nM] | IC50 (CDK9/cyclin T1) [nM] | IC50 (GSK3b) [nM] | IC50 [1] [nM] | melting point [°C] | IC50 (Aurora A kinase) [nM] | Structure (SMILES)
1000 | 1260 | 200 | 126 | 398 | 63.1 | 794 | 63.1 | 124 to 125 |  | CCNc1nc(C)c(-c2ccnc(Nc3cccc(S(=O)(=O)NCCO)c3)n2)s1 [Compound 75, 3-[4-(2-Ethylamino-4-methyl-thiazol-5-yl)-pyrimidin-2-ylamino]-N-(2-hydroxy-ethyl)-benzenesulfonamide]
1260 | 1580 | 316 | 100 | 794 | 63.1 | 501 | 100 | 189 to 190 | 39.8 | CNc1nc(C)c(-c2ccnc(Nc3cccc(S(=O)(=O)NCCO)c3)n2)s1 [Compound 76, N-(2-Hydroxy-ethyl)-3-[4-(4-methyl-2-methylamino-thiazol-5-yl)-pyrimidin-2-ylamino]-benzenesulfonamide]
